Consider four molecules from patent publication US20170038686A1, “ANTHRAQUINONE COMPOUND USED FOR COLOR FILTER OF LCD” (Rohm and Haas Electronic Materials LLC, priority 2014, published 2017).

Common to all, as to type: physicochemical
A short description of series [1]: Thermal stability of films (chromaticity difference ΔEab before/after hard baking). Particulars: for ΔEab after baking at 230° C. for another 1 h: film further baked at 230° C. under air for another 1 h; for ΔEab after baking at 230° C. for 1 h: film with alkaline soluble acrylic resin, hard bake 230° C. under air 1 h. As to the method: For Inventive Example 1, 0.15 g of Dye 1, 1.35 g of PGMEA and 1 g of alkaline soluble acrylic resin solution (MIPHOTO RPR4022, supplied from Miwan Commercial Co., Ltd., 25 to 35% of solid content in methyl 3-methoxypropionate) were mixed and stirred for 2 hours at room temperature using a shaker. For Inventive Example 2, 0.15 g of a mixture of Dye land Dye 2 was used instead of Dye 1. The solutions were filtered with a 0.45 μm PTFE filter to get rid of big particles. Then the filtered solutions were spin coated onto a clean glass substrate with 200 and 270 rpm spin speed for 18 seconds respectively. The obtained films were first dried at 90° C. under air atmosphere for 30 minutes, and then hard baked at 230° C. under air atmosphere for 1 hour. The CIE values (xyY values and lab values) and the UV-Vis were measured before and after the hard bake.
The obtained dry films were further baked at 230° C. under air for 1 hour to evaluate thermal stability of the films. Optical performance after baking (AEab value) were 2.3 (Inventive Example 1) and 1.8 (Inventive Example 2), and the one of after further baking were 3.0 (Inventive Example 1) and 2.7 (Inventive Example 2). A smaller AEab value indicates better heat resistance.
(§1) <Performance Evaluation> • (1) Thermal stability of dyes (Mass loss measured by TGA): • The thermal stability of dye itself was determined by the mass loss of dye measured by TGA under air atmosphere at 230° C. for 1 hour. This evaluation reflects chemical stability of the dye itself. • (2) Film thickness: • Film thickness is measured by scanning the difference in height across the boundary of film and glass substrate with atomic force microscope. • (3) Chromaticity coordinates: • The chromaticity coordinate of film on a glass sheet is directly recorded with UltraScan Pro (Hunterlab) colorimeter. The light source is D65/10. • (4) Thermal stability of films (Chromaticity): • The wet film after spin coating is dried in oven at 90° C. for 30 minutes and then soft baked at 150° C. for 15 minutes. The chromaticity coordinates (L, a, b) are recorded with UltraScan Pro (Hunterlab) colorimeter. D65/10 light source is used and results are based on CIE Lab coordinates. After that the film is hard baked at target temperature (230° C.) for 1 hour and the new chromaticity coordinates (L′, a′, b′) are recorded with the method above. The thermal stability of a film is indicated by the difference of chromaticity coordinate before and after hard baking represented by the following formula;
ΔE=√{square root over ((L−L′)^2+(a−a′)^2+(b−b′)^2)}

A short description of series [2]: Solubility of dye in PGMEA. Particulars: solvent PGMEA.
The nature of series [3]: Thermal stability of dyes (mass loss measured by TGA). Particulars: 230° C. for 1 hour, air atmosphere. Here is the method:
as §1

Structures are written as SMILES.

Consider `Cc1cc(C)c(Nc2ccc(Nc3c(C)cc(O)cc3C)c3c2C(=O)c2ccccc2C3=O)c(C)c1` [(1-((4-hydroxy-2,6-dimethylphenyl)amino)-4-(mesitylamino)-anthraquinone], for which, in series [1], the “ΔEab after baking at 230° C. for another 1 h” value (“ΔEab … for another 1 h” below) is 6.0 and the “ΔEab after baking at 230° C. for 1 h” value stood at 6.8. Moreover, the “Solubility in PGMEA” value in series [2] worked out at 2.8 wt %.

Take `CC(C)Nc1ccc(NC(C)C)c2c1C(=O)c1ccccc1C2=O` [Solvent Blue 36]: the “ΔEab after baking at 230° C. for 1 h” value in series [1] was 33 (color. Further, the “Solubility in PGMEA” value in series [2] is reported as 1.92 wt %.

Consider `Cc1cc(C)c(Nc2ccc(Nc3c(C)cc(OCC(O)COc4ccc(C(C)(C)c5ccc(OCC(O)COc6cc(C)c(Nc7ccc(Nc8c(C)cc(C)cc8C)c8c7C(=O)c7ccccc7C8=O)c(C)c6)cc5)cc4)cc3C)c3c2C(=O)c2ccccc2C3=O)c(C)c1` (stereo not drawn) [Dye 1], for which, in series [1], the “ΔEab … for another 1 h” value was determined as 3.0 and the “ΔEab after baking at 230° C. for 1 h” value came out at 2.3. Moreover, the “Solubility in PGMEA” value in series [2] turned out to be 11.2 wt %. Moreover, the “Mass loss by TGA after baking” value in series [3] worked out at 2 wt. %.

On to `Cc1cc(C)c(Nc2ccc(Nc3c(C)cc(C)cc3C)c3c2C(=O)c2ccccc2C3=O)c(C)c1` [Solvent Blue 104, 1,4-bis(mesitylamino)anthraquinone], for which, in series [1], the “ΔEab … for another 1 h” value is recorded as 6.1 and the “ΔEab after baking at 230° C. for 1 h” value is given as 7.9. For the same molecule, the “Solubility in PGMEA” value in series [2] turned out to be 0.6 wt %.
